Assay results from PubChem BioAssay (NCI).
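The compound was tested at five concentrations on cells cultured in 96-well plates, with a 48-hour exposure period. Definition used: TGI = concentration required for complete inhibition of growth.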 Where a SMILES comes first, the peptide text is derived from it. Bridges are numbered along the chain shown (N, C = ends). [ ]: non-standard residue; d: D form. The star is where a group is joined. ξ: configuration not given here. X26 = O=C(/C=C/C=C/C=C/C=C/C=C/C(=O)*)NC1=C(O)CCC1=O; NMeA = CN[C@@H](C)C(=O)O; ξF = NC(Cc1ccccc1)C(=O)O; ξA = CC(N)C(=O)O

Legend:
Assay in all cases: NCI anticancer screen, dose series, 48 h
786-0 renal = system: 786-0 renal
A549 NSCLC = system: A549 NSCLC
ACHN renal = system: ACHN renal
BT-549 breast = system: BT-549 breast
CAKI-1 renal = system: CAKI-1 renal
CCRF-CEM leukemia = system: CCRF-CEM leukemia
COLO 205 colon = system: COLO 205 colon
DU-145 prostate = system: DU-145 prostate
EKVX NSCLC = system: EKVX NSCLC
HCC-2998 colon = system: HCC-2998 colon
HCT-116 colon = system: HCT-116 colon
HCT-15 colon = system: HCT-15 colon
HL-60(TB) leukemia = system: HL-60(TB) leukemia
HOP-62 NSCLC = system: HOP-62 NSCLC
HOP-92 NSCLC = system: HOP-92 NSCLC
HS 578T breast = system: HS 578T breast
HT29 colon = system: HT29 colon
IGROV1 ovarian = system: IGROV1 ovarian
K-562 leukemia = system: K-562 leukemia
KM12 colon = system: KM12 colon
LOX IMVI melanoma = system: LOX IMVI melanoma
M14 melanoma = system: M14 melanoma
MALME-3M melanoma = system: MALME-3M melanoma
MCF7 breast = system: MCF7 breast
MDA-MB-231 breast = system: MDA-MB-231 breast
MDA-MB-435 = system: MDA-MB-435
MDA-N = system: MDA-N
MOLT-4 leukemia = system: MOLT-4 leukemia
NCI-H226 lung = system: NCI-H226 lung
NCI-H23 lung = system: NCI-H23 lung
NCI-H460 lung = system: NCI-H460 lung
NCI-H522 lung = system: NCI-H522 lung
NCI/ADR-RES ovarian = system: NCI/ADR-RES ovarian
OVCAR-3 ovarian = system: OVCAR-3 ovarian
OVCAR-4 ovarian = system: OVCAR-4 ovarian
OVCAR-5 ovarian = system: OVCAR-5 ovarian
OVCAR-8 ovarian = system: OVCAR-8 ovarian
PC-3 prostate = system: PC-3 prostate
RPMI-8226 leukemia = system: RPMI-8226 leukemia
RXF 393 renal = system: RXF 393 renal
SF-268 CNS = system: SF-268 CNS
SF-295 CNS = system: SF-295 CNS
SF-539 CNS = system: SF-539 CNS
SK-MEL-2 melanoma = system: SK-MEL-2 melanoma
SK-MEL-28 melanoma = system: SK-MEL-28 melanoma
SK-MEL-5 melanoma = system: SK-MEL-5 melanoma
SK-OV-3 ovarian = system: SK-OV-3 ovarian
SN12C renal = system: SN12C renal
SNB-19 CNS = system: SNB-19 CNS
SNB-75 CNS = system: SNB-75 CNS
SR leukemia = system: SR leukemia
SW-620 colon = system: SW-620 colon
T-47D breast = system: T-47D breast
TK-10 renal = system: TK-10 renal
U251 CNS = system: U251 CNS
UACC-257 melanoma = system: UACC-257 melanoma
UACC-62 melanoma = system: UACC-62 melanoma
UO-31 renal = system: UO-31 renal
A498 renal = system: A498 renal

C[C@@H]1S[C@H](c2ccccc2F)N2Cc3ccccc3N=C12
TGI (786-0 renal): 63.1 µM
TGI (A549 NSCLC): > 100 µM
TGI (ACHN renal): > 100 µM
TGI (BT-549 breast): > 100 µM
TGI (CAKI-1 renal): > 100 µM
TGI (CCRF-CEM leukemia): > 100 µM
TGI (COLO 205 colon): > 100 µM
TGI (DU-145 prostate): > 100 µM
TGI (EKVX NSCLC): 95.9 µM
TGI (HCC-2998 colon): 40.9 µM
TGI (HCT-116 colon): 42.2 µM
TGI (HCT-15 colon): > 100 µM
TGI (HL-60(TB) leukemia): 52.3 µM
TGI (HOP-62 NSCLC): > 100 µM
TGI (HOP-92 NSCLC): 65 µM
TGI (HS 578T breast): > 100 µM
TGI (HT29 colon): 86.6 µM
TGI (IGROV1 ovarian): > 100 µM
TGI (K-562 leukemia): 65.9 µM
TGI (KM12 colon): > 100 µM
TGI (LOX IMVI melanoma): 38.1 µM
TGI (M14 melanoma): 48.7 µM
TGI (MALME-3M melanoma): 54.2 µM
TGI (MCF7 breast): > 100 µM
TGI (MDA-MB-231 breast): > 100 µM
TGI (MDA-MB-435): 88.5 µM
TGI (MDA-N): 48.4 µM
TGI (MOLT-4 leukemia): 46.7 µM
TGI (NCI-H226 lung): > 100 µM
TGI (NCI-H23 lung): > 100 µM
TGI (NCI-H460 lung): > 100 µM
TGI (NCI-H522 lung): 51.6 µM
TGI (NCI/ADR-RES ovarian): 99.3 µM
TGI (OVCAR-3 ovarian): > 100 µM
TGI (OVCAR-4 ovarian): 85.4 µM
TGI (OVCAR-5 ovarian): > 100 µM
TGI (OVCAR-8 ovarian): > 100 µM
TGI (PC-3 prostate): 97.1 µM
TGI (RPMI-8226 leukemia): 44.4 µM
TGI (RXF 393 renal): 83.9 µM
TGI (SF-268 CNS): > 100 µM
TGI (SF-295 CNS): > 100 µM
TGI (SF-539 CNS): > 100 µM
TGI (SK-MEL-2 melanoma): 34.7 µM
TGI (SK-MEL-28 melanoma): > 100 µM
TGI (SK-MEL-5 melanoma): 32.5 µM
TGI (SK-OV-3 ovarian): 85.1 µM
TGI (SN12C renal): 42.2 µM
TGI (SNB-19 CNS): > 100 µM
TGI (SNB-75 CNS): 97.4 µM
TGI (SR leukemia): 36.9 µM
TGI (SW-620 colon): > 100 µM
TGI (T-47D breast): 91.4 µM
TGI (TK-10 renal): 94.2 µM
TGI (U251 CNS): > 100 µM
TGI (UACC-257 melanoma): 85.7 µM
TGI (UACC-62 melanoma): 54.8 µM
TGI (UO-31 renal): 54 µM

CC1NC(=O)[C@H](C)N(C)C(=O)[C@@H]2CCCN2C(=O)[C@@H](NC(=O)C(Cc2ccccc2)NC(=O)/C=C/C=C/C=C/C=C/C=C/C(=O)NC2=C(O)CCC2=O)COC(=O)[C@@H]2CCCN2C1=O (some centres undefined) (X26-[ξF]SP[NMeA][ξA]P; ester 2-C)
TGI (786-0 renal): > 100 µM
TGI (A549 NSCLC): > 100 µM
TGI (ACHN renal): > 100 µM
TGI (BT-549 breast): > 100 µM
TGI (CAKI-1 renal): > 100 µM
TGI (CCRF-CEM leukemia): > 100 µM
TGI (COLO 205 colon): > 100 µM
TGI (DU-145 prostate): > 100 µM
TGI (EKVX NSCLC): > 100 µM
TGI (HCC-2998 colon): > 100 µM
TGI (HCT-116 colon): > 100 µM
TGI (HCT-15 colon): > 100 µM
TGI (HL-60(TB) leukemia): > 100 µM
TGI (HOP-62 NSCLC): > 100 µM
TGI (HOP-92 NSCLC): > 100 µM
TGI (HS 578T breast): > 100 µM
TGI (HT29 colon): > 100 µM
TGI (IGROV1 ovarian): > 100 µM
TGI (K-562 leukemia): > 100 µM
TGI (KM12 colon): > 100 µM
TGI (LOX IMVI melanoma): > 100 µM
TGI (M14 melanoma): > 100 µM
TGI (MALME-3M melanoma): > 100 µM
TGI (MCF7 breast): > 100 µM
TGI (MDA-MB-231 breast): > 100 µM
TGI (MDA-MB-435): > 100 µM
TGI (MDA-N): > 100 µM
TGI (NCI-H23 lung): > 100 µM
TGI (NCI-H460 lung): > 100 µM
TGI (NCI-H522 lung): > 100 µM
TGI (NCI/ADR-RES ovarian): > 100 µM
TGI (OVCAR-3 ovarian): > 100 µM
TGI (OVCAR-4 ovarian): > 100 µM
TGI (OVCAR-5 ovarian): > 100 µM
TGI (PC-3 prostate): > 100 µM
TGI (RPMI-8226 leukemia): > 100 µM
TGI (RXF 393 renal): > 100 µM
TGI (SF-268 CNS): > 100 µM
TGI (SF-295 CNS): > 100 µM
TGI (SF-539 CNS): > 100 µM
TGI (SK-MEL-2 melanoma): > 100 µM
TGI (SK-MEL-28 melanoma): > 100 µM
TGI (SK-MEL-5 melanoma): > 100 µM
TGI (SK-OV-3 ovarian): > 100 µM
TGI (SN12C renal): > 100 µM
TGI (SNB-19 CNS): > 100 µM
TGI (SNB-75 CNS): > 100 µM
TGI (SR leukemia): > 100 µM
TGI (SW-620 colon): > 100 µM
TGI (T-47D breast): > 100 µM
TGI (TK-10 renal): 92.1 µM
TGI (U251 CNS): > 100 µM
TGI (UACC-257 melanoma): > 100 µM
TGI (UACC-62 melanoma): > 100 µM
TGI (UO-31 renal): > 100 µM

C(/C=C(\Nc1ccccc1)C12CC3CC(CC(C3)C1)C2)=Nc1ccccc1
TGI (786-0 renal): 29.3 µM
TGI (A498 renal): > 100 µM
TGI (A549 NSCLC): 73.3 µM
TGI (ACHN renal): 26.4 µM
TGI (BT-549 breast): 31.6 µM
TGI (CAKI-1 renal): 29.5 µM
TGI (CCRF-CEM leukemia): 8.38 µM
TGI (COLO 205 colon): 32.6 µM
TGI (DU-145 prostate): 56.7 µM
TGI (EKVX NSCLC): 39.4 µM
TGI (HCC-2998 colon): 33.2 µM
TGI (HCT-116 colon): 27 µM
TGI (HCT-15 colon): 28 µM
TGI (HL-60(TB) leukemia): 32.1 µM
TGI (HOP-62 NSCLC): 45.7 µM
TGI (HOP-92 NSCLC): 60.7 µM
TGI (HS 578T breast): > 100 µM
TGI (HT29 colon): 27.6 µM
TGI (IGROV1 ovarian): 36.5 µM
TGI (K-562 leukemia): 35.1 µM
TGI (KM12 colon): 35.2 µM
TGI (LOX IMVI melanoma): 28.6 µM
TGI (M14 melanoma): 32.6 µM
TGI (MALME-3M melanoma): 36.9 µM
TGI (MCF7 breast): 59.4 µM
TGI (MDA-MB-231 breast): 34.1 µM
TGI (MDA-MB-435): 34.3 µM
TGI (MDA-N): 30.9 µM
TGI (MOLT-4 leukemia): 22.9 µM
TGI (NCI-H226 lung): 38.5 µM
TGI (NCI-H23 lung): 36.8 µM
TGI (NCI-H460 lung): 62.6 µM
TGI (NCI-H522 lung): 24.3 µM
TGI (NCI/ADR-RES ovarian): 42.5 µM
TGI (OVCAR-3 ovarian): 21.1 µM
TGI (OVCAR-4 ovarian): 48.8 µM
TGI (OVCAR-5 ovarian): 34.5 µM
TGI (OVCAR-8 ovarian): 49.8 µM
TGI (PC-3 prostate): 33.1 µM
TGI (RXF 393 renal): 35.4 µM
TGI (SF-268 CNS): 41.1 µM
TGI (SF-295 CNS): 36.5 µM
TGI (SK-MEL-28 melanoma): 47.1 µM
TGI (SK-MEL-5 melanoma): 28 µM
TGI (SK-OV-3 ovarian): 46.5 µM
TGI (SN12C renal): 36.2 µM
TGI (SNB-19 CNS): 33.9 µM
TGI (SNB-75 CNS): 46.4 µM
TGI (SR leukemia): 30.4 µM
TGI (SW-620 colon): 41.7 µM
TGI (T-47D breast): 99.6 µM
TGI (TK-10 renal): 45.4 µM
TGI (U251 CNS): 31.7 µM
TGI (UACC-257 melanoma): 73.3 µM
TGI (UACC-62 melanoma): 25.7 µM
TGI (UO-31 renal): 29.3 µM
